From patent publication US10501456B2, “Therapeutic agents for the treatment of HBV infection” (Newave Pharmaceutical Inc., priority 2016, dated 2019)
Where a name gives a salt, the structure may show the parent alone.

Tests used:
Rat PK study = assay type: in vivo, female Sprague-Dawley rats; settings: for AUC(0-t) / bioavailability / Cmax / half-life: female, Sprague-Dawley, plasma, oral dosing; for half-life: read-out: t½ (converted)
Method: The pharmacokinetics of compounds were evaluated in female Sprague-Dawley rats via Intravenous and Oral Administration. The iv dose was administered as a slow bolus in the Jugular vein, and oral doses were administered by gavage. The fomulaltion for IV dosing is 20% DMSO and 60% PEG 400 in water, and the PO formulation (suspension) is 1% MC, 0.4% Kolliphor EL in water. The PK time point for the IV arm is 5, 15, 30 min, 1, 2, 4, 6, 8, 12, 24 hours post dose, and for PO arm is 15, 30 min, 1, 2, 4, 6, 8, 12, 24 hours post dose. Approximately 0.2 mL blood will be collected at each time point. Blood of each sample will be transferred into plastic micro centrifuge tubes containing EDTA-K2 and collect plasma within 15 min by centrifugation at 4000 g for 5 minutes in a 4° C. centrifuge. Plasma samples will be stored in polypropylene tubes. The samples will be stored in a freezer at −75±15° C. prior to analysis. Concentrations of compounds in the plasma samples will be analyzed using a LC-MS/MS method. WinNonlin (Phoenix™, version 6.1) or other similar software will be used for pharmacokinetic calculations. The following pharmacokinetic parameters will be calculated, whenever possible from the plasma concentration versus time data: IV administration: C0, CL, Vd, T1/2, AUCinf, AUClast, MRT, Number of Points for Regression; PO administration: Cmax, Tmax, T1/2, AUCinf, AUClast, F %, Number of Points for Regression. The pharmacokinetic data will be described using descriptive statistics such as mean, standard deviation. Additional pharmacokinetic or statistical analysis may be performed at the discretion of the contributing scientist, and will be documented in the data summary

[1] = Compound cytotoxicity assay (CellTiter-Glo); assay type: cell-based; settings: human; HepG2.2.15 cells, 4 day incubation, top conc. 150 μM
Method: (§1) Compounds are diluted with DMSO in 3-fold, 11-point scheme: top conc. of test compound is 30 mM. Add 0.25 μL titrated compounds with Echo 550 to 384-well cytotoxicity assay plates. Add 50 μl HepG2.2.15 cells to each well (4,000 cells per well). The final top conc. is 150 μM after cell addition. For solvent control well (0% effect, ZPE), 0.25 μL DMSO is added (final DMSO conc. is 0.5%). Incubate for 4 days in 37⊏ C, 5% CO2 incubator. After
(§2) 4 day incubation compound cytotoxicity is measured by Promega CellTiter-Glo reagents, briefly: • Equilibrate the Celltiter-Glo reagent to room temperature • Equilibrate the cytotoxicity plates to RT for 20 minutes. • Add 50 μl of CellTiter-Glo Reagent to each well. • Shake 2 minutes on a shaker. • Incubate at room temperature in dark for 10 minutes. • Read plate on Envision Plate reader (0.1 sec integration time/well)
(§3) Such assays, carried out with a range of doses of test compounds, allow the determination of the cellular IC50 of the compounds of the present invention.

hERG = hERG (Homo sapiens, UniProt Q12809); assay: hERG assay (automated patch-clamp); assay type: biochemical; settings: for IC10 (10% inhibitory concentration, hERG tail current): automated patch-clamp
Description: The human ether-a-go-go related gene (hERG) encodes the inward rectifying voltage gated potassium channel in the heart (IKr) which is involved in cardiac repolarization. Inhibition of the hERG current causes QT interval prolongation resulting in potentially fatal ventricular tachyarrhythmia called Torsade de Pointes. A number of drugs have been withdrawn from late stage clinical trials due to these cardiotoxic effects, therefore it is important to identify inhibitors early in drug discovery.
The degree of inhibition (%) was obtained by measuring the tail current amplitude, which is induced by a one second test pulse to −40 mV after a two second pulse to +20 mV, before and after drug incubation (the difference current was normalized to control and multiplied by 100 to obtain the percent of inhibition). Concentration (log) response curves were fitted to a logistic equation (three parameters assuming complete block of the current at very high test compound concentrations) to generate estimates of the 10% inhibitory concentration (IC10). The concentration-response relationship of each compound was constructed from the percentage reductions of current amplitude by sequential concentrations.

extracellular HBV DNA = assay: HBV DNA assay (real-time qPCR/TaqMan, HepG2.2.15 cells); assay type: cell-based; settings: for EC50: Hepatitis B virus, 144 h, six days, supernatant HBV DNA copy number, read-out: EC50 (reduction in HBV DNA levels)
Method: The assay employs real-time qPCR (TaqMan) to directly measure extracellular HBV DNA copy number. HepG2.2.15 cells were plated in 96-well microtiter plates. Only the interior wells were utilized to reduce “edge effects” observed during cell culture, the exterior wells were filled with complete medium to help minimize sample evaporation. On the following day, the HepG2.2.15 cells were washed and the medium was replaced with complete medium containing various concentrations of a test compound in triplicate. 3TC was used as the positive control, while media alone was added to cells as a negative control (virus control, VC). Three days later, the culture medium was replaced with fresh medium containing the appropriately diluted drug. Six days following the initial administration of the test compound, the cell culture supernatant was collected, treated with pronase and then used in a real-time qPCR/TaqMan assay to determine HBV DNA copy numbers. TDF (tenofovir disoproxil fumarate) is used as a positive control reference. Antiviral activity was calculated from the reduction in HBV DNA levels (IC50).

HepG2.2.15 cells = assay: Compound cytotoxicity assay (CellTiter-Glo); assay type: cell-based; settings: compared with Compound 203 in WO2015113990
Method: as §1, §2, §3

hERG, sequence (Q12809 whole entry): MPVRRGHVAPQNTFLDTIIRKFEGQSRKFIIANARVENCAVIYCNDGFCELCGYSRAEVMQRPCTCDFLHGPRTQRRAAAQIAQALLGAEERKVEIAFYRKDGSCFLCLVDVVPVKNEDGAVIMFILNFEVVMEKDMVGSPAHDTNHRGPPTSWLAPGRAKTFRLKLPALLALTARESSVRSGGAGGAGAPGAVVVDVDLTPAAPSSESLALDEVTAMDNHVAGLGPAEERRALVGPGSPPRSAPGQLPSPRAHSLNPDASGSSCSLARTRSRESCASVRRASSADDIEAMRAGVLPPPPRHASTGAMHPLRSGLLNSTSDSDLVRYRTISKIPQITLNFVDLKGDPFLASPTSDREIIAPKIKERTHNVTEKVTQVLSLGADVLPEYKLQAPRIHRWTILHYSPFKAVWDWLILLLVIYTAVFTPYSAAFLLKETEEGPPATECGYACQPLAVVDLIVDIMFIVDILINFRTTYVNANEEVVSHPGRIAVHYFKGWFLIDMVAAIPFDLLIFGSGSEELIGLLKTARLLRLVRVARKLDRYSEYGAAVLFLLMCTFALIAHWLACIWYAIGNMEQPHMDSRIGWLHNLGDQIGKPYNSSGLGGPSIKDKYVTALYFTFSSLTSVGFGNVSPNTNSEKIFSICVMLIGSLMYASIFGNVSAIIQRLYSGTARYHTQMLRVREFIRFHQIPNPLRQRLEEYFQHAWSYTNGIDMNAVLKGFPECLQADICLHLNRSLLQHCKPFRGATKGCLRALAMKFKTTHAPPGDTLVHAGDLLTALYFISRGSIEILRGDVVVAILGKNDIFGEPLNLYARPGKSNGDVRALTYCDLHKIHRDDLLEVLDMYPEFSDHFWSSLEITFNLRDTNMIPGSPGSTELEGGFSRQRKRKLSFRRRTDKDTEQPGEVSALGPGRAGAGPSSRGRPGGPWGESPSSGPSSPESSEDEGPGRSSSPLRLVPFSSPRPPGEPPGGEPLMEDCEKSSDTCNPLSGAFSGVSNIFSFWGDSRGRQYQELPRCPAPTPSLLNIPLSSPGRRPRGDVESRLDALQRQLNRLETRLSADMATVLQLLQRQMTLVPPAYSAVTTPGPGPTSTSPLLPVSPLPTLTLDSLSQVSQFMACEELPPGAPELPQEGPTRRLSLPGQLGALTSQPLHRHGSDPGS

SMILES	AUC(0-t) (Rat PK study; 10 mg/kg) [ng·h/mL]	bioavailability (Rat PK study; 10 mg/kg) [%]	IC50 at 4 days [1] [nM]	AUC(0-t) (Rat PK study; 20 mg/kg) [ng·h/mL]	Cmax (Rat PK study; 20 mg/kg) [ng/mL]	bioavailability (Rat PK study; 20 mg/kg) [%]	half-life (Rat PK study; 20 mg/kg) [h]	IC10 (10% inhibitory concentration, hERG tail current) (hERG) [nM]	EC50 (extracellular HBV DNA) [nM]	other results
[2H]C([2H])([2H])Oc1cc2c(cc1OCCCOC)C[C@@H](C(C)(C)C)n1cc(C(=O)O)c(=O)c(F)c1-2 [Example 14, (S)-6-(tert-butyl)-1-fluoro-10-(methoxy-d3)-9-(3-methoxypropoxy)-2-oxo-6,7-dihydro-2H-pyrido[2,1-a]isoquinoline-3-carboxylic acid]	9050	61.1	–	–	–	–	–	–	–	oral PK profile (in words) (Rat PK study; oral dosing of 10 mg/kg, compared with Example 13): much better oral PK profile
COCCCOc1cc2c(cc1Cl)-c1cc(=O)c(C(=O)O)cn1[C@H](C(C)(C)C)C2 [Compound 203 in WO2015113990, reference compound]	–	–	120000	16700	2470	40	3.73	1000	< 1	–
COCCCOc1cc2c(cc1OC)-c1c(F)c(=O)c(C(=O)O)cn1[C@H](C(C)(C)C)C2 [Example 13]	5840	24.1	–	–	–	–	–	–	–	–
COCCCOc1cc2c(cc1Cl)-c1c(F)c(=O)c(C(=O)O)cn1[C@H](C(C)(C)C)C2 (single isomer, unassigned) [Example 2A, (+)-6-(tert-butyl)-10-chloro-1-fluoro-9-(3-methoxypropoxy)-2-oxo-6,7-dihydro-2H-pyrido[2,1-a]isoquinoline-3-carboxylic acid]	–	–	> 150000	39600	7550	58.6	4.47	10000	< 1	cytotoxicity (in words) (HepG2.2.15 cells): less cytotoxicity; oral PK profile (in words) (Rat PK study; oral dosing of 20 mg/kg, compared with Compound 203 in WO2015113990): better oral PK profile; cardiac toxicity (in words) (hERG; hERG, compared with Compound 203 in WO2015113990): less cardiac toxicity; anti-HBV potency (in words) (extracellular HBV DNA; HBV DNA): highly potent
CC(C)OC(=O)OCOP(=O)(CO[C@H](C)Cn1cnc2c(N)ncnc21)OCOC(=O)OC(C)C [Tenofovir Disoproxil Fumarate, tenofovir disoproxil fumarate, reference compound]	–	–	–	–	–	–	–	–	29.3	–
